Structures can show the parent of a compound that is named as a salt.
Biological target: T1, Sirt6 (Homo sapiens, UniProt Q8N6T7)
T1 construct: purchased CycLex CY-1156V2
Test: Measurement of Sirt6 Activity (CycLex Sirt6 Deacetylase Fluorometric Assay Kit)
Assay type: biochemical
Conditions: compound at 10 μM; fluorescence relative to the group without compound treatment (positive control group)
Procedure, shortened: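 Recombinant Sirt6 with fluoro-labelled acetyl-lysine peptide, NAD and lysylendopeptidase developer, compound added from 10× stock in PBS; 1 h at room temperature. Fluorescence read at ex 490/em 530 nm; activation expressed as fluorescence ratio relative to enzyme without compound.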

T1 sequence (Q8N6T7 whole entry): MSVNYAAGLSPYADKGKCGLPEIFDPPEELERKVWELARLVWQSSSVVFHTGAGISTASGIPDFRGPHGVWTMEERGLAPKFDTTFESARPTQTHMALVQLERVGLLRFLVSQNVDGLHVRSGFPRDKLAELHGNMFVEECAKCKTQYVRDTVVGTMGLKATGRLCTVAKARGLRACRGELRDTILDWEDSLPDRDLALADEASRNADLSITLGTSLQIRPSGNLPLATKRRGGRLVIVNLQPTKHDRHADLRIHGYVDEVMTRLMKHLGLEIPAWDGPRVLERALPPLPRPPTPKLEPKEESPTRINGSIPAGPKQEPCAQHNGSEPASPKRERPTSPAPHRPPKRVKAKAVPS

SMILES	Sirt6 Activity (% activity, 10 μM) [% activity]
CC(C)(/C(N)=N\O)c1cccc(-c2nn(-c3ccc(F)cc3F)c(=O)c3ccccc23)c1 [Example 170, (E)-2-(3-(3-(2,4-Difluorophenyl)-4-oxo-3,4-dihydrophthalazin-1-yl)phenyl)-N′-hydroxy-2-methyl propanimideamide]	262.7
CC(C)(C(=O)O)c1cccc(-c2nn(-c3ccccc3F)c(=O)c3ccccc23)c1 [Example 171, 2-(3-(3-(2-Fluorophenyl)-4-oxo-3,4-dihydrophthalazin-1-yl)phenyl)-2-methylpropanoic Acid]	134.7
Cl.NC1CCCCN(c2nn(C3CCC3)c(=O)c3ccccc23)C1 (stereo not shown) [Example 172, 4-(3-Aminoazepan-1-yl)-2-cyclobutyl phthalazin-1(2H)-one-hydrochloride]	99.5
Cl.NC1CCCCN(c2nn(C3CCCC3)c(=O)c3ccccc23)C1 (stereo not shown) [Example 173, 4-(3-Aminoazepan-1-yl)-2-cyclopentyl phthalazin-1(2H)-one-hydrochloride]	112.2
Cc1nc(C(C)(C)c2cccc(-c3nn(-c4ccc(F)cc4F)c(=O)c4ccccc34)c2)no1 [Example 174, 2-(2,4-Difluorophenyl)-4-(3-(2-(5-methyl-1,2,4-oxadiazol-3-yl)propan-2-yl)phenyl)phthalazin-1(2H)-one]	114.2
Cl.N[C@@H]1CCCCN(c2nn(-c3ccccc3F)c(=O)c3ccccc23)C1 [Example 175, (R)-4-(3-Aminoazepan-1-yl)-2-(2-fluorophenyl)phthalazin-1(2H)-one-hydrochloride]	155.3
CC(C)NC(=O)C(C)(C)c1cccc(-c2nn(-c3ccc(F)cc3F)c(=O)c3ccccc23)c1 [Example 176, 2-(3-(3-(2,4-Difluorophenyl)-4-oxo-3,4-dihydrophthalazin-1-yl)phenyl)-N-isopropyl-2-methylpropanamide]	244.30
CC(C)(C(=O)N1CCCC1)c1cccc(-c2nn(-c3ccc(F)cc3F)c(=O)c3ccccc23)c1 [Example 177, 2-(2,4-Difluorophenyl)-4-(3-(2-methyl-1-oxo-1-(pyrrolidin-1-yl)propan-2-yl)phenyl)phthalazin-1(2H)-one]	241.6
CC(C)(C(=O)NC1CC1)c1cccc(-c2nn(-c3ccc(F)cc3F)c(=O)c3ccccc23)c1 [Example 178, N-Cyclopropyl-2-(3-(3-(2,4-difluorophenyl)-4-oxo-3,4-dihydrophthalazin-1-yl)phenyl)-2-methyl Propanamide]	331.00
CC(C)(C(=O)N1CCOCC1)c1cccc(-c2nn(-c3ccc(F)cc3F)c(=O)c3ccccc23)c1 [Example 179, 2-(2,4-Difluorophenyl)-4-(3-(2-methyl-1-morpholino-1-oxopropan-2-yl)phenyl)phthalazin-1(2H)-one]	221.60
CC(C)(C(=O)NC1CCCCC1)c1cccc(-c2nn(-c3ccc(F)cc3F)c(=O)c3ccccc23)c1 [Example 180, N-Cyclohexyl-2-(3-(3-(2,4-difluorophenyl)-4-oxo-3,4-dihydrophthalazin-1-yl)phenyl)-2-methylpropanamide]	133.30
CC(C)(C(=O)Nc1ccccc1)c1cccc(-c2nn(-c3ccc(F)cc3F)c(=O)c3ccccc23)c1 [Example 181, 2-(3-(3-(2,4-difluorophenyl)-4-oxo-3,4-dihydrophthalazin-1-yl)phenyl)-2-methyl-N-phenylpropanamide]	122.10
Cn1cc(NC(=O)C(C)(C)c2cccc(-c3nn(-c4ccc(F)cc4F)c(=O)c4ccccc34)c2)cn1 [Example 182, 2-(3-(3-(2,4-Difluorophenyl)-4-oxo-3,4-dihydrophthalazin-1-yl)phenyl)-2-methyl-N-(1-methyl-1H-pyrazol-4-yl)propanamide]	219.60
O=C(O)C1(c2cccc(-c3nn(-c4ccc(F)cc4F)c(=O)c4ccccc34)c2)CC1 [Example 183, 1-(3-(3-(2,4-Difluorophenyl)-4-oxo-3,4-dihydrophthalazin-1-yl)phenyl)cyclopropan-1-carboxylic Acid]	194.70
O=c1c2ccccc2c(N2CCCNCC2)nn1-c1ccc(F)cc1F [Example 184, 4-(1,4-Diazepan-1-yl)-2-(2,4-difluorophenyl)phthalazin-1(2H)-one-hydrochloride]	176.80
Cl.N[C@@H]1CCCCN(c2nn(-c3ccc(Cl)cc3)c(=O)c3ccccc23)C1 [Example 185, (R)-4-(3-Aminoazepan-1-yl)-2-(4-chlorophenyl)phthalazin-1(2H)-one-hydrochloride]	273.80
CC(C)(C(=O)NCCO)c1cccc(-c2nn(-c3ccc(F)cc3F)c(=O)c3ccccc23)c1 [Example 186, 2-(3-(3-(2,4-Difluorophenyl)-4-oxo-3,4-dihydrophthalazin-1-yl)phenyl)-N-(2-hydroxyethyl)-2-methyl Propanamide]	305.80

SMILES	Sirt6 Activity (% activity, 10 μM) [% activity]
CCS(=O)(=O)N[C@@H]1CCCCN(c2nn(-c3ccc(F)cc3F)c(=O)c3ccccc23)C1 [Example 187, (R)—N-(1-(3-(2,4-Difluorophenyl)-4-oxo-3,4-dihydrophthalazin-1-yl)azepan-3-yl)ethanesulfonamide]	303.80
CC(C)(C(N)=O)c1cccc(-c2nn(-c3ccc(F)cc3F)c(=O)c3ccccc23)c1 [Example 188, 2-(3-(3-(2,4-Difluorophenyl)-4-oxo-3,4-dihydrophthalazin-1-yl)phenyl)-2-methylpropanamide]	358.40
CN[C@@H]1CCCCN(c2nn(-c3ccc(F)cc3F)c(=O)c3ccccc23)C1 [Example 189, (R)-2-(2,4-Difluorophenyl)-4-(3-(methylamino)azepan-1-yl)phthalazin-1(2H)-one-hydrochloride]	273.70
O=c1c2ccccc2c(N2CCCCC(O)C2)nn1-c1ccc(F)cc1F (stereo not shown) [Example 190, 2-(2,4-Difluorophenyl)-4-(3-hydroxyazepan-1-yl)phthalazin-1(2H)-one]	332.60
Cl.O=c1c2ccccc2c(N2CCCC[C@@H](NCCO)C2)nn1-c1ccc(F)cc1F [Example 191, (R)-2-(2,4-Difluorophenyl)-4-(3-((2-hydroxyethyl)amino)azepan-1-yl)phthalazin-1(2H)-one-hydro Chloride]	312.70
CC(=O)N[C@@H]1CCCCN(c2nn(-c3ccc(F)cc3F)c(=O)c3ccccc23)C1 [Example 192, (R)—N-(1-(3-(2,4-Difluorophenyl)-4-oxo-3,4-dihydrophthalazin-1-yl)azepan-3-yl)acetamide]	286.60
O=C1CCCCN(c2nn(-c3ccc(F)cc3F)c(=O)c3ccccc23)C1 [Example 193, 2-(2,4-Difluorophenyl)-4-(3-oxoazepan-1-yl)phthalazin-1 (2H)-one]	206.10
CC(C)(C(=O)O)c1cccc(-c2nn(-c3ccc(Cl)cc3)c(=O)c3ccccc23)c1 [Example 194, 2-(3-(3-(4-Chlorophenyl)-4-oxo-3,4-dihydrophthalazin-1-yl)phenyl)-2-methylpropanoic Acid]	350.20
O=C(O)C1(c2cccc(-c3nn(-c4ccc(Cl)cc4)c(=O)c4ccccc34)c2)CC1 [Example 195, 1-(3-(3-(4-Chlorophenyl)-4-oxo-3,4-dihydrophthalazin-1-yl)phenyl)cyclopropan-1-carboxylic Acid]	287.30
O=c1c2ccccc2c(N2CCCCC(O)C2)nn1-c1ccc(Cl)cc1 (stereo not shown) [Example 196, 2-(4-Chlorophenyl)-4-(3-hydroxyazepan-1-yl)phthalazin-1(2H)-one]	135.10
CC(C)(C(N)=O)c1cccc(-c2nn(-c3ccc(Cl)cc3)c(=O)c3ccccc23)c1 [Example 197, 2-(3-(3-(4-Chlorophenyl)-4-oxo-3,4-dihydrophthalazin-1-yl)phenyl)-2-methylpropanamide]	153.60
NC(=O)C1(c2cccc(-c3nn(-c4ccc(Cl)cc4)c(=O)c4ccccc34)c2)CC1 [Example 198, 1-(3-(3-(4-Chlorophenyl)-4-oxo-3,4-dihydrophthalazin-1-yl)phenyl)cyclopropan-1-carboxyamide]	225.40
O=C(O)Cc1cccc(-c2nn(-c3ccc(F)cc3F)c(=O)c3ccccc23)c1 [Example 199, 2-(3-(3-(2,4-Difluorophenyl)-4-oxo-3,4-dihydrophthalazin-1-yl)phenyl)acetic Acid]	149.41
CC(C)(N)c1cccc(-c2nn(-c3ccc(F)cc3F)c(=O)c3ccccc23)c1.Cl [Example 200, 4-(3-(2-Aminopropan-2-yl)phenyl)-2-(2,4-difluorophenyl)phthalazin-1(2H)-one-hydrochloride]	255.33
CC(C)(C(=O)O)c1cccc(-c2nn(-c3ccc(Cl)cc3F)c(=O)c3ccccc23)c1 [Example 201, 2-(3-(3-(4-Chloro-2-fluorophenyl)-4-oxo-3,4-dihydrophthalazin-1-yl)phenyl)-2-methylpropanoic Acid]	204.58
Cl.N[C@@H]1CCCCN(c2nn(-c3ccc(Cl)cc3F)c(=O)c3ccccc23)C1 [Example 202, (R)-4-(3-Aminoazepan-1-yl)-2-(4-chloro-2-fluorophenyl)phthalazin-1-(2H)-one-hydrochloride]	261.73
N#CC1CCCCN(c2nn(-c3ccc(Cl)cc3F)c(=O)c3ccccc23)C1 (stereo not shown) [Example 203, 1-(3-(4-Chloro-2-fluorophenyl)-4-oxo-3,4-dihydrophthalazin-1-yl)azepane-3-carbonitrile]	109.84

— US20220235011A1, “PHTHALAZINONE COMPOUNDS AND USE THEREOF” (ST PHARM CO., LTD., priority 2019, published 2022)
